What was measured:
[1] = test system: primary human T-cells; assay: Cytokine secretion on protein level in activated primary human T-cells (13-plex FACS / Luminex, supernatant); format: cell-based; settings: 10^−9M
Description: (§1) Primary T-cells were isolated from peripheral blood from healthy volunteers and from secondary lymphatic organs from naïve C57BL/6 mice, respectively. The cells were stimulated with phorbol-12-myristate-13-acetate (PMA)/Ionomycin and interferon-gamma (IFN-γ), respectively, for 48 h to activate the cells. The activated cells release pro-inflammatory cytokines. In parallel a human (HaCaT) keratinocyte cell line was activated with PMA/Ionomycin and IFN-γ, respectively, too. […] At the same time release of anti-inflammatory IL-10 was inhibited. Two days after addition of PMA/Ionomycin and IFN-γ, respectively, the induction of IL-1 secretion was determined in the supernatant for proving that the cells are activated. […] The anti-inflammatory properties of the tripeptides were determined 48 h and 72 h following stimulation. A 13-plex-system based FACS analysis was used for showing the reduced secretion of pro-inflammatory cytokines in the supernatant. Data for IL-1, IL-2, IL-6, IL-12p70 IL-17, IFN-γ and TNF-α are considered to be most relevant. Thus, analysis of the anti-inflammatory properties of the tripeptides is preferably based on the results obtained for these analytes. […] Using this method the gene expression of pro-inflammatory markers like IL-6, IL-17, IFN-γ and TNF-α was determined.
(§2) In a third experiment murine and human T cells and HaCaT cells were stimulated with PMA/Ionomycin and treated with Examples 14, 15, 16 and 17 at 10^−7 M, 10^−9 M and 10^−11 M. Cytokine concentrations (IFN-γ, IL-17 and IL-10 for T cells and IFN-γ for HaCat) were assessed in the supernatants using the Luminex technology. Expression of genes coding for Il-1β, IL-6 and TNF-α was determined. […] Moreover, concentrations of pro-inflammatory cytokines IFN-γ and IL-17 was reduced in the supernatants whereas the concentration of anti-inflammatory cytokine IL-10 was increased. […]
(§3) For the biological assay two human cell lines of different origin were chosen to allow for translation of the results obtained. A HaCaT cell is a cell type belonging to an immortal human keratinocyte line used in scientific research. Its use in research allows for the characterization of human keratinocyte using a model that is reproducible and representing a human epithelial cell line. In contrast human T-lymphocytes (T-cells) are a type of lymphocyte (itself a type of white blood cell) that play a central role in cell-mediated inflammation/immunity.

[2] = test system: human keratinocyte cell line (HaCaT); assay: Cytokine secretion on protein level in activated human keratinocyte cell line HaCaT (13-plex FACS / Luminex, supernatant); format: cell-based; settings: for IL-1 cytokine concentration / IL-2 cytokine concentration / IL-4 cytokine concentration / IL-5 cytokine concentration / IL-6 cytokine concentration / IL-9 cytokine concentration / IL-10 cytokine concentration / IL-13 cytokine concentration / IL-17 cytokine concentration / TNF-α cytokine concentration / IL-12p70 cytokine concentration / IL-22 cytokine concentration / IFN-γ cytokine concentration: 10^−9M; for IL-12p70 cytokine concentration / IL-22 cytokine concentration: excluded from the final assessment
Description: as §1, §2, §3

[3] = test system: primary murine T-cells; assay: Cytokine secretion on protein level in activated primary murine T-cells (13-plex FACS / Luminex, supernatant); format: cell-based, C57BL/6 mice; settings: 10^−9M
Description: as §1
In a third experiment murine and human T cells and HaCaT cells were stimulated with PMA/Ionomycin and treated with Examples 14, 15, 16 and 17 at 10^−7 M, 10^−9 M and 10^−11 M. Cytokine concentrations (IFN-γ, IL-17 and IL-10 for T cells and IFN-γ for HaCat) were assessed in the supernatants using the Luminex technology. Expression of genes coding for Il-1β, IL-6 and TNF-α was determined. […] Moreover, concentrations of pro-inflammatory cytokines IFN-γ and IL-17 was reduced in the supernatants whereas the concentration of anti-inflammatory cytokine IL-10 was increased.
The anti-inflammatory and immunomodulatory effects of selected examples of the present invention were compared with common immunosuppressants. Thus, cells activated with PMA/Ionomycin and IFN-γ, respectively, were stimulated with MMF or dexamethasone. Following stimulation the secretion of pro-inflammatory cytokines was analyzed on protein and gene level (Table 9 and FIGS. 4-6).

[4] = primary human T-cells stimulated with IFN-γ
[5] = primary human T-cells stimulated with PBS
[6] = primary human T-cells stimulated with PMA/Ionomycin
[7] = HaCaT stimulated with PMA/Ionomycin
[8] = primary murine T-cells stimulated with IFN-γ
[9] = primary murine T-cells stimulated with PBS
[10] = primary murine T-cells stimulated with PMA/Ionomycin
[11] = primary murine T-cells stimulated with PMA/Ionomycin, 1:10 dilution of the supernatants

Substance: H-(L)-Lys-(D)-Pro-N^α-methyl-(L)-Thr-OH [Example 2]
- IL-1 cytokine concentration [1, 4]: 314.88 pg/mL
- IL-2 cytokine concentration [1, 4]: 740.3 pg/mL
- IL-4 cytokine concentration [1, 4]: 116.26 pg/mL
- IL-5 cytokine concentration [1, 4]: 177.72 pg/mL
- IL-6 cytokine concentration [1, 4]: 97.68 pg/mL
- IL-9 cytokine concentration [1, 4]: 106.37 pg/mL
- IL-10 cytokine concentration [1, 4]: 146.79 pg/mL
- IL-12p70 cytokine concentration [1, 4]: 804.93 pg/mL
- IL-13 cytokine concentration [1, 4]: 97.39 pg/mL
- IL-17 cytokine concentration [1, 4]: 168.9 pg/mL
- IL-22 cytokine concentration [1, 4]: 21970.6 pg/mL
- TNF-α cytokine concentration [1, 4]: 188.29 pg/mL
- IFN-γ cytokine concentration [1, 5]: 0 pg/mL
- IL-1 cytokine concentration [1, 5]: 305.62 pg/mL
- IL-2 cytokine concentration [1, 5]: 985.16 pg/mL
- IL-4 cytokine concentration [1, 5]: 151.33 pg/mL
- IL-5 cytokine concentration [1, 5]: 310.87 pg/mL
- IL-6 cytokine concentration [1, 5]: 84.38 pg/mL
- IL-9 cytokine concentration [1, 5]: 116.55 pg/mL
- IL-10 cytokine concentration [1, 5]: 253.29 pg/mL
- IL-12p70 cytokine concentration [1, 5]: 226.23 pg/mL
- IL-13 cytokine concentration [1, 5]: 90.3 pg/mL
- IL-17 cytokine concentration [1, 5]: 238.4 pg/mL
- IL-22 cytokine concentration [1, 5]: 2242.06 pg/mL
- TNF-α cytokine concentration [1, 5]: 211.85 pg/mL
- IFN-γ cytokine concentration [1, 6]: 2726.77 pg/mL
- IL-1 cytokine concentration [1, 6]: 69689.2 pg/mL
- IL-2 cytokine concentration [1, 6]: 12000 pg/mL
- IL-4 cytokine concentration [1, 6]: 239.02 pg/mL
- IL-5 cytokine concentration [1, 6]: 325.76 pg/mL
- IL-6 cytokine concentration [1, 6]: 1533.99 pg/mL
- IL-9 cytokine concentration [1, 6]: 142.93 pg/mL
- IL-10 cytokine concentration [1, 6]: 3938.15 pg/mL
- IL-12p70 cytokine concentration [1, 6]: 1413.17 pg/mL
- IL-13 cytokine concentration [1, 6]: 760.63 pg/mL
- IL-17 cytokine concentration [1, 6]: 3476.92 pg/mL
- IL-22 cytokine concentration [1, 6]: 24128.2 pg/mL
- TNF-α cytokine concentration [1, 6]: 3600 pg/mL
- IL-1 cytokine concentration ([2]; HaCaT stimulated with IFN-γ): 265.46 pg/mL
- IL-2 cytokine concentration ([2]; HaCaT stimulated with IFN-γ): 96.34 pg/mL
- IL-4 cytokine concentration ([2]; HaCaT stimulated with IFN-γ): 71.76 pg/mL
- IL-5 cytokine concentration ([2]; HaCaT stimulated with IFN-γ): 109.73 pg/mL
- IL-6 cytokine concentration ([2]; HaCaT stimulated with IFN-γ): 641.89 pg/mL
- IL-9 cytokine concentration ([2]; HaCaT stimulated with IFN-γ): 104.08 pg/mL
- IL-10 cytokine concentration ([2]; HaCaT stimulated with IFN-γ): 129.2 pg/mL
- IL-13 cytokine concentration ([2]; HaCaT stimulated with IFN-γ): 61.18 pg/mL
- IL-17 cytokine concentration ([2]; HaCaT stimulated with IFN-γ): 629.16 pg/mL
- TNF-α cytokine concentration ([2]; HaCaT stimulated with IFN-γ): 79.97 pg/mL
- IL-12p70 cytokine concentration ([2]; HaCaT stimulated with IFN-γ): 1904.09 pg/mL
- IL-22 cytokine concentration ([2]; HaCaT stimulated with IFN-γ): 0 pg/mL
- IFN-γ cytokine concentration ([2]; HaCaT stimulated with PBS): 397.45 pg/mL
- IL-1 cytokine concentration ([2]; HaCaT stimulated with PBS): 251.25 pg/mL
- IL-2 cytokine concentration ([2]; HaCaT stimulated with PBS): 177.85 pg/mL
- IL-4 cytokine concentration ([2]; HaCaT stimulated with PBS): 90.8 pg/mL
- IL-5 cytokine concentration ([2]; HaCaT stimulated with PBS): 189.12 pg/mL
- IL-6 cytokine concentration ([2]; HaCaT stimulated with PBS): 75.53 pg/mL
- IL-9 cytokine concentration ([2]; HaCaT stimulated with PBS): 139.65 pg/mL
- IL-10 cytokine concentration ([2]; HaCaT stimulated with PBS): 151.26 pg/mL
- IL-13 cytokine concentration ([2]; HaCaT stimulated with PBS): 69.36 pg/mL
- IL-17 cytokine concentration ([2]; HaCaT stimulated with PBS): 569.9 pg/mL
- TNF-α cytokine concentration ([2]; HaCaT stimulated with PBS): 84.84 pg/mL
- IL-12p70 cytokine concentration ([2]; HaCaT stimulated with PBS): 1864.02 pg/mL
- IL-22 cytokine concentration ([2]; HaCaT stimulated with PBS): 14446.9 pg/mL
- IFN-γ cytokine concentration [2, 7]: 704.33 pg/mL
- IL-1 cytokine concentration [2, 7]: 204.23 pg/mL
- IL-2 cytokine concentration [2, 7]: 130.08 pg/mL
- IL-4 cytokine concentration [2, 7]: 58.48 pg/mL
- IL-5 cytokine concentration [2, 7]: 129.65 pg/mL
- IL-6 cytokine concentration [2, 7]: 129.99 pg/mL
- IL-9 cytokine concentration [2, 7]: 104.14 pg/mL
- IL-10 cytokine concentration [2, 7]: 97.55 pg/mL
- IL-13 cytokine concentration [2, 7]: 69.36 pg/mL
- IL-17 cytokine concentration [2, 7]: 369.01 pg/mL
- TNF-α cytokine concentration [2, 7]: 62.15 pg/mL
- IL-12p70 cytokine concentration [2, 7]: 0 pg/mL
- IL-22 cytokine concentration [2, 7]: 14806.4 pg/mL
- secretion / expression of pro-inflammatory cytokines (supernatant) ([2]; activated human keratinocytes): decreased secretion
- IL-1 cytokine concentration [3, 8]: 22.78 pg/mL
- IL-2 cytokine concentration [3, 8]: 0 pg/mL
- IL-4 cytokine concentration [3, 8]: 0 pg/mL
- IL-5 cytokine concentration [3, 8]: 72.11 pg/mL
- IL-6 cytokine concentration [3, 8]: 23.14 pg/mL
- IL-10 cytokine concentration [3, 8]: 72.95 pg/mL
- IL-13 cytokine concentration [3, 8]: 0 pg/mL
- IL-17 cytokine concentration [3, 8]: 0 pg/mL
- IL-21 cytokine concentration [3, 8]: 0 pg/mL
- IL-22 cytokine concentration [3, 8]: 8.52 pg/mL
- IL-27 cytokine concentration [3, 8]: 1234.48 pg/mL
- TNF-α cytokine concentration [3, 8]: 0 pg/mL
- IFN-γ cytokine concentration [3, 9]: 2375.02 pg/mL
- IL-1 cytokine concentration [3, 9]: 36.6 pg/mL
- IL-2 cytokine concentration [3, 9]: 138.15 pg/mL
- IL-4 cytokine concentration [3, 9]: 0 pg/mL
- IL-5 cytokine concentration [3, 9]: 45.71 pg/mL
- IL-6 cytokine concentration [3, 9]: 0 pg/mL
- IL-10 cytokine concentration [3, 9]: 0 pg/mL
- IL-13 cytokine concentration [3, 9]: 0 pg/mL
- IL-17 cytokine concentration [3, 9]: 0 pg/mL
- IL-21 cytokine concentration [3, 9]: 0 pg/mL
- IL-22 cytokine concentration [3, 9]: 0 pg/mL
- IL-27 cytokine concentration [3, 9]: 0 pg/mL
- TNF-α cytokine concentration [3, 9]: 0 pg/mL
- IL-1 cytokine concentration [3, 10]: 0 pg/mL
- IL-4 cytokine concentration [3, 10]: 129.47 pg/mL
- IL-5 cytokine concentration [3, 10]: 350.49 pg/mL
- IL-6 cytokine concentration [3, 10]: 338.28 pg/mL
- IL-10 cytokine concentration [3, 10]: 155.42 pg/mL
- IL-13 cytokine concentration [3, 10]: 4703.82 pg/mL
- IL-17 cytokine concentration [3, 10]: 649.14 pg/mL
- IL-21 cytokine concentration [3, 10]: 0 pg/mL
- IL-22 cytokine concentration [3, 10]: 670.15 pg/mL
- IL-27 cytokine concentration [3, 10]: 778.4 pg/mL
- TNF-α cytokine concentration [3, 10]: 628.15 pg/mL
- IFN-γ* cytokine concentration [3, 11]: 0 pg/mL
- IL-2* cytokine concentration [3, 11]: 744.58 pg/mL

— patent US10954269B2, “Anti-inflammatory tripeptides” (Dr. August Wolff Gmbh & Co. KG Arzneimittel, priority 2013, dated 2021)
